Legend:
Coagulation factor XI = Coagulation factor XI (Homo sapiens, UniProt P03951); assay: (§1) Determination of the % Inhibition for FXIa: FXIa inhibitory activity in vitro was determined using standard published methods (see e.g. Johansen et al., Int. J. Tiss. Reac. 1986, 8, 185; Shori et al., Biochem. Pharmacol., 1992, 43, 1209; Sturzebecher et al., Biol. Chem. Hoppe-Seyler, 1992, 373, 1025). Human FXIa (Enzyme Research Laboratories) was incubated at 25° C. with the fluorogenic substrate Z-Gly-Pro-Arg-AFC and 40 μM of the test compound (or alternatively at various concentrations of the test compound in order to determine IC50). Residual enzyme activity (initial rate of reaction) was determined by measuring the change in optical absorbance at 410 nm and the IC50 value for the test compound was determined.
Plasma kallikrein = Plasma kallikrein (Homo sapiens, UniProt P03952); assay: as §1, with “IC50” for “% Inhibition”, “Plasma Kallikrein: Plasma kallikrein” for “FXIa: FXIa”, “plasma kallikrein (Protogen)” for “FXIa (Enzyme Research Laboratories)”, “H-DPro-Phe-Arg-AFC” for “Z-Gly-Pro-Arg-AFC”, “and” for “and 40 μM of the test compound (or alternatively at”, “compound.” for “compound in order to determine IC50).”
Kallikrein-1 = Kallikrein-1 (Homo sapiens, UniProt P06870); assay: as §1, with “IC50” for “% Inhibition”, “KLK1: KLK1” for “FXIa: FXIa”, “KLK1 (Callbiochem)” for “FXIa (Enzyme Research Laboratories)”, “H-DVal-Leu-Arg-AFC” for “Z-Gly-Pro-Arg-AFC”, “and” for “and 40 μM of the test compound (or alternatively at”, “compound.” for “compound in order to determine IC50).”
Chain of Kallikrein-1 (P06870 whole entry): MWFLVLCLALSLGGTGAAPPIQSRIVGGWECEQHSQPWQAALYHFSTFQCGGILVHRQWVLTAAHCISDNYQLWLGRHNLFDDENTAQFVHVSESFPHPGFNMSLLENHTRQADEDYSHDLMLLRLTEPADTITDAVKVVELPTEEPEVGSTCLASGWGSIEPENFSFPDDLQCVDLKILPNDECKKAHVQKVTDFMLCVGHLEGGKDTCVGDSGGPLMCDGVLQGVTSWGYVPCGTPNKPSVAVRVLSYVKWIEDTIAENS

Chain of Coagulation factor XI (P03951 19-387 limits assumed): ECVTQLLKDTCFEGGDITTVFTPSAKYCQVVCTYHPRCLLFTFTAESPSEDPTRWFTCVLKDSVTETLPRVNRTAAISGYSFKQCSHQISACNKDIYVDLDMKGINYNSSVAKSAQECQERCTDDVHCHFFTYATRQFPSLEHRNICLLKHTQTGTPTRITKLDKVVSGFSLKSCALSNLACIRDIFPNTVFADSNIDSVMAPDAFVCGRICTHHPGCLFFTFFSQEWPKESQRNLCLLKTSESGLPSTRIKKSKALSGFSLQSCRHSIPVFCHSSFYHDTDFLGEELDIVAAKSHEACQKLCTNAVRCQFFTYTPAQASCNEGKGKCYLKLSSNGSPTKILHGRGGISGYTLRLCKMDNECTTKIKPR
Chain of Coagulation factor XI (P03951 388-625 limits assumed): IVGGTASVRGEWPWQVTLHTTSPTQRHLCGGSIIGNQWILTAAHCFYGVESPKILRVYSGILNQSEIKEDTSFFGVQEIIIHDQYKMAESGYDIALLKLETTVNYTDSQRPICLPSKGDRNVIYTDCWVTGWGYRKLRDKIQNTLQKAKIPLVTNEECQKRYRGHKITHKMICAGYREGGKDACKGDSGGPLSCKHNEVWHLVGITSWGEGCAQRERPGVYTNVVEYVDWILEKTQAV
Chain of Plasma kallikrein (P03952 20-390 limits assumed): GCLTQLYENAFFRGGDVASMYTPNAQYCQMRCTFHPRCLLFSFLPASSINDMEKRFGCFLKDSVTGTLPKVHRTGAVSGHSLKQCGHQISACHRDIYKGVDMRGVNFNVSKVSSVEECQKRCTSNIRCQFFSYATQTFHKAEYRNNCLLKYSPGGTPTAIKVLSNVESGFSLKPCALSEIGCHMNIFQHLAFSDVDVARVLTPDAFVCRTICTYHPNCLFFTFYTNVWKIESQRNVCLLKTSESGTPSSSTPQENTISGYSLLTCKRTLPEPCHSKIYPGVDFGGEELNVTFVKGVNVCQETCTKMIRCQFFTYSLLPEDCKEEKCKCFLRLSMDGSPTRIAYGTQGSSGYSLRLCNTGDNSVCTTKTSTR
Chain of Plasma kallikrein (P03952 391-638 limits assumed): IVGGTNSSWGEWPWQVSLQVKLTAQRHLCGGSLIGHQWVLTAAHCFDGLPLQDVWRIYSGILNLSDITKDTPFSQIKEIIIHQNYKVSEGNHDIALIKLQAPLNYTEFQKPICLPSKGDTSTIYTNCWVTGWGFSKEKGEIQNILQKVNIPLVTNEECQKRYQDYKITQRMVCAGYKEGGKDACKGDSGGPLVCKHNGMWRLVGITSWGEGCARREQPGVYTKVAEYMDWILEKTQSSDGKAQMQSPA

SMILES | IC50 (Coagulation factor XI) | IC50 (Plasma kallikrein) | IC50 (Kallikrein-1)
COCc1nn(Cc2ccc3c(c2)CN(C(C)C)C3)cc1C(=O)NCc1c(-n2cc(C)nn2)ccc(OC)c1F | > 40000 nM | < 10 nM | > 40000 nM
COCc1nn(Cc2cnc(N3CCCC3)nc2)cc1C(=O)NCc1c(-n2ccnn2)ccc(OC)c1F | 970 nM | < 10 nM | > 40000 nM
COCc1nn(Cc2cnc(N3CCCC3)nc2)cc1C(=O)NCc1c(-n2cc(C)nn2)ccc(OC)c1F | 1840 nM | < 10 nM | > 40000 nM
